Legend:
[1] = test system: chronic constriction injury (CCl) of the sciatic nerve; assay: Thermal hyperalgesia test (paw withdrawal latency) after chronic constriction injury; type: in vivo, rat; conditions: for mean paw withdrawal latency over baseline: Example 1, FIG. 2; for increase in paw withdrawal latency over baseline: 0.1 mg/kg
Protocol: (§1) The behavioral animal model of chronic constriction injury (“CCl”) was chosen to evaluate the efficacy of NFκB inhibitors as a pain treatment. This model may mimic pain associated with sciatica in humans. To induce CCl, each animal was anesthetized by intraperitoneal (“i.p.”) injection of sodium pentobarbital at a dose of 60 mg/kg body weight. The animal's right common sciatic nerve was exposed and freed from adherent tissue at mid-thigh by separating the muscle (biceps femoris) by blunt dissection. Four loose ligatures were placed 1 mm apart, using chromic gut (4-0 absorbable suture, Jorgensen Laboratories Inc., Loveland, Colo.).
Animal behavioral testing was conducted on Days 7, 14 and 21 after CCl. In the thermal hyperalgesia test, animals were placed in the clear plastic chamber of a plantar analgesia instrument and allowed to acclimate to the environment for 15 minutes. After the acclimation period, a radiant (heat) beam source stimulus was applied to the CCl hind paw of each animal. The heat source device was set at an intensity of 50, and a maximum latency period of 15 seconds was set to prevent tissue damage according to the recommendations of the instrument manufacturer. If a paw withdrawal occurred within the 15 second period, an automated control interrupted both the stimulus and timer, turning off the radiant beam and recording the latency of time to paw withdrawal. Data was analyzed using a one-way analysis of variance at each test day.
Specifically, the same methods as described above were used except that sulfasalazine was administered at doses of 5 mg/kg; 1 mg/kg or 0.2 mg/kg.
Following the previous experiment, the effect of local doses of clonidine on pain sensitivity was explored. Animals were administered vehicle or test substances through a subcutaneously implanted Alzet pump. Again, the previously described methods for CCl and paw withdrawal latency measurements were followed except that in the presently described experiment animals received either vehicle control; 1 μg/hour Enbrel® as a positive control; 0.01 μg/hour clonidine; 0.05 μg/hour clonidine; or 0.25 μg/hour clonidine.

[2] = test system: chronic constriction injury (CCl) of the sciatic nerve; assay: Mechanical (tactile) allodynia, von Frey filaments, after chronic constriction injury; type: in vivo, rat; conditions: for sensitivity in mechanical allodynia paradigm compared to controls: Example 3, FIG. 4, Days 8, 15 and 22 following CCl; for decrease in pain sensitivity, mechanical allodynia test / pain sensitivity in the mechanical allodynia test, in words: Example 4, FIG. 5B
Protocol: as §1
The ability of sulfasalazine to inhibit pain was also evaluated using a different sensitivity measure following CCl, namely mechanical (or tactile) allodynia. In this study, mechanical allodynia was determined in reaction to probing with von Frey filaments (Stoelting, Wood Dale, Ill.). Mechanical sensitivity was measured on Days 8, 15 and 22 following CCl by determining the median 50% foot withdrawal threshold for von Frey filaments using the up-down method described in Chaplan et al. (J Neurosci Methods 1994; 54:55) which is incorporated by reference herein for its teachings regarding the up-down method. Rats were placed under a plastic cover (9×9×20 cm) on a metal mesh floor. The area tested was the middle glabrous area between the footpads of the plantar surface of the injured hind paw within the L4 innervation area. The plantar area was touched with a series of 9 von Frey hairs with approximately exponentially incremental bending forces (von Frey values: 3.61, 3.8, 4.0, 4.2, 4.41, 4.6, 4.8, 5.0, and 5.2; equivalent to: 0.41, 0.63, 1.0, 1.58, 2.51, 4.07, 6.31, 10, and 15.8 g). The von Frey hair was presented perpendicular to the plantar surface with sufficient force to cause slight bending and held for approximately 3 to 4 seconds. Abrupt withdrawal of the foot (paw flinching) was recorded as a response. Any rat showing a mechanical threshold of more than 3.24 g was eliminated from the study.

[3] = rat, in vivo, 100 mg/kg
[4] = test system: Complete Freund's Adjuvant (CFA) inflammatory pain model; conditions: spinal administration; cited from earlier work

Enbrel®
mean paw withdrawal latency over baseline ([1]; 3 mg/kg, test day 7): about 60%
mean paw withdrawal latency over baseline ([1]; 3 mg/kg, test day 14): ~63%
mean paw withdrawal latency over baseline ([1]; 3 mg/kg, test day 21): ~75%
paw withdrawal latency over baseline ([1]; Example 2, FIG. 3, positive control, test day 7): about 51%
paw withdrawal latency over baseline ([1]; Example 2, FIG. 3, positive control, test day 14): ~63%
paw withdrawal latency over baseline ([1]; Example 2, FIG. 3, positive control, test day 21): ~62%
paw withdrawal latency over baseline, average ([1]; Example 4, FIG. 5A, 3 mg/kg, all three test days): about 51%
paw withdrawal latency over baseline ([1]; Example 5, FIG. 6, subcutaneously implanted Alzet pump, 1 μg/hour, test day 7): about 45%
paw withdrawal latency over baseline ([1]; Example 5, FIG. 6, subcutaneously implanted Alzet pump, 1 μg/hour, test day 14): about 60%
paw withdrawal latency over baseline ([1]; Example 5, FIG. 6, subcutaneously implanted Alzet pump, 1 μg/hour, test day 21): ~71%
sensitivity in mechanical allodynia paradigm compared to controls [2]: decreased sensitivity

Clc1cccc(Cl)c1N=C1NCCN1 [clonidine]
increase in paw withdrawal latency over baseline ([1]; Example 4, FIG. 5A, test day 7): about 78%
increase in paw withdrawal latency over baseline ([1]; Example 4, FIG. 5A, test day 21): ~61%
increase in paw withdrawal latency over baseline ([1]; Example 4, FIG. 5A, test day 41): ~60%
paw withdrawal latency over baseline ([1]; Example 5, FIG. 6, subcutaneously implanted Alzet pump, 0.01 μg/hour, test day 7): about 60%
paw withdrawal latency over baseline ([1]; Example 5, FIG. 6, subcutaneously implanted Alzet pump, 0.01 μg/hour, test day 14): ~64%
paw withdrawal latency over baseline ([1]; Example 5, FIG. 6, subcutaneously implanted Alzet pump, 0.01 μg/hour, test day 21): ~79%
paw withdrawal latency over baseline ([1]; Example 5, FIG. 6, subcutaneously implanted Alzet pump, 0.05 μg/hour, test day 7): about 68%
paw withdrawal latency over baseline ([1]; Example 5, FIG. 6, subcutaneously implanted Alzet pump, 0.05 μg/hour, test day 14): ~64%
paw withdrawal latency over baseline ([1]; Example 5, FIG. 6, subcutaneously implanted Alzet pump, 0.05 μg/hour, test day 21): ~83%
paw withdrawal latency over baseline ([1]; Example 5, FIG. 6, subcutaneously implanted Alzet pump, 0.25 μg/hour, test day 7): about 63%
paw withdrawal latency over baseline ([1]; Example 5, FIG. 6, subcutaneously implanted Alzet pump, 0.25 μg/hour, test day 14): ~70%
paw withdrawal latency over baseline ([1]; Example 5, FIG. 6, subcutaneously implanted Alzet pump, 0.25 μg/hour, test day 21): ~82%
dose reduction without loss of efficacy ([1]; Example 5, local dosing by pump): 25 fold
decrease in pain sensitivity, mechanical allodynia test ([2]; 0.1 mg/kg, day 8): about 58%
decrease in pain sensitivity, mechanical allodynia test ([2]; 0.1 mg/kg, day 15): ~20%
decrease in pain sensitivity, mechanical allodynia test ([2]; 0.1 mg/kg, day 22): ~48%
pain sensitivity in the mechanical allodynia test, in words ([2]; low dose (0.02 mg/kg), effect not as strong): decreased sensitivity

O=C(O)c1cc(/N=N/c2ccc(S(=O)(=O)Nc3ccccn3)cc2)ccc1O [sulfasalazine]
mean paw withdrawal latency over baseline ([1]; 5 mg/kg, test day 7): about 80%
mean paw withdrawal latency over baseline ([1]; 5 mg/kg, test day 14): ~83%
mean paw withdrawal latency over baseline ([1]; 5 mg/kg, test day 21): ~87%
mean paw withdrawal latency over baseline ([1]; 50 mg/kg, test day 7): about 74%
mean paw withdrawal latency over baseline ([1]; 50 mg/kg, test day 14): ~79%
mean paw withdrawal latency over baseline ([1]; 50 mg/kg, test day 21): ~83%
sensitivity in mechanical allodynia paradigm compared to controls [2]: decreased sensitivity

S=C(S)N1CCCC1 [PDTC, pyrollidinedithiocarbamate]
drug toxicity [3]: removed from the study following the second day of testing due to drug toxicity
paw withdrawal latencies versus control levels ([1]; Example 4, FIG. 5A, 20 mg/kg or 100 mg/kg, not as effective as other NFκB inhibiting compounds): did increase paw withdrawal latencies over control levels
pain sensitivity in the mechanical allodynia test, in words ([2]; compared to animals receiving vehicle or Enbrel): showed some effect in decreasing pain sensitivity
mechanical allodynia [4]: significantly reduce
thermal hyperalgesia [4]: significantly reduce

CC1=C(CC(=O)O)c2cc(F)ccc2/C1=C\c1ccc([S+](C)[O-])cc1 (centres unmarked) [sulindac]
paw withdrawal latency over baseline ([1]; Example 4, FIG. 5A, 2 mg/kg, all three test days): about 65%
paw withdrawal latency over baseline ([1]; Example 4, FIG. 5A, 10 mg/kg, test day 7): about 65%
paw withdrawal latency over baseline ([1]; Example 4, FIG. 5A, 10 mg/kg, test day 21): about 75%
paw withdrawal latency over baseline ([1]; Example 4, FIG. 5A, 10 mg/kg, test day 41): ~81%
decrease in pain sensitivity, mechanical allodynia test ([2]; 2 mg/kg, day 8): about 66%
decrease in pain sensitivity, mechanical allodynia test ([2]; 2 mg/kg, day 15): ~50%
decrease in pain sensitivity, mechanical allodynia test ([2]; 2 mg/kg, day 22): ~35%
decrease in pain sensitivity, mechanical allodynia test ([2]; 10 mg/kg, day 8): about 68%
decrease in pain sensitivity, mechanical allodynia test ([2]; 10 mg/kg, day 15): about 58%
decrease in pain sensitivity, mechanical allodynia test ([2]; 10 mg/kg, day 22): ~60%

Source: patent US8969397B2, “Systems and methods to treat pain locally” (Warsaw Orthopedic, Inc., priority 2004, dated 2015)
